The values that follow come from paper PMC4536136 (Bioorganic & medicinal chemistry, 2015).

The target of series [1] is intracellular Leishmania donovani strain MHOM/ET/67/L82 β-lactamase expressing parasites. The settings on record: cited from earlier work; for EC50: read-out: L. donovani EC50, ref Van Horn et al.[18].
Another series relates to L. donovani. The settings on record: 15 mg/kg/day for five days, ip; cited from earlier work.
The nature of series [2]: Pharmacokinetic analysis after ip administration in mice. It counts as in vivo. The note with it: for Kp / concentration at 4 h / concentration at 12 h: Swiss Webster, mouse, ip, 10 mg/kg; for Kp: liver and spleen (versus plasma).
Another series has as its system BALB/c mice. The experiment in a line: Toxicity to BALB/c mice. It counts as in vivo.

SMILES strings stand for the structures.

As a reminder, the EC50 is the concentration giving half of the maximal effect. As usually defined, the Kp is the ratio of the level in a tissue or fluid to that in plasma or blood.

`c1ccc(CNc2nc(NCc3ccccc3)c3ccccc3n2)cc1` [Compound 1, N^2,N^4-dibenzylquinazoline-2,4-diamine]: the EC50 in series [1] was 670 ± 270 nM.

With `CNc1nc(NCc2ccccc2)nc2ccccc12` [Compound 2, N^2-benzyl-N^4-methylquinazoline-2,4-diamine], the EC50 in series [1] was 150 ± 20 nM.

`CC(C)Nc1nc(NCc2ccco2)c2ccccc2n1` [Compound 3]: the EC50 in series [1] is 2500 ± 400 nM.

For `Cc1ccc2c(NCc3ccco3)nc(NC(C)C)nc2c1` [Compound 4, N^4-(furan-2-ylmethyl)-N^2-isopropyl-7-methylquinazoline-2,4-diamine], the “activity in L. donovani-infected mice” value with L. donovani is recorded as “promising activity”. For the same molecule, in series [1] (ref Van Horn et al.[18]), the “L. donovani EC50” value is recorded as “submicromolar”.

For `Clc1ccc(CNc2nc(NCc3ccccc3)c3ccccc3n2)cc1` [Compound 15, N^4-benzyl-N^2-(4-chlorobenzyl)quinazoline-2,4-diamine], the “plasma AUC relative to 40 after adjusting for dose” value in series [2] (10 mg/kg ip, mice) came to 2.8 fold. Also, in series [2], the Kp lay in the range of 20 to 21. Moreover, the figures for the concentration at 4 h in series [2] (liver) and in series [2] (spleen) were 25.3 µM and 26.6 µM, respectively. In addition, the concentration at 12 h came out at 25.3 µM in series [2] (liver) and 26.6 µM in series [2] (spleen). The “toxicity to BALB/c mice” value in the series on BALB/c mice (10 mg/kg/day × 5, ip) is given as “no apparent adverse effects”; in the series with BALB/c mice (30 mg/kg/day × 5, ip) it was “toxic”.

Molecule `CC(C)Nc1nc(NCc2ccccc2)nc2ccccc12` [Compound 40, N^2-benzyl-N^4-isopropylquinazoline-2,4-diamine] came in with a Kp in series [2] of 3.2 to 16. Further, the concentration at 4 h in series [2] (liver) was found to be 20.2 µM; in series [2] (spleen) it was 16.5 µM. Also, the concentration at 12 h in series [2] (liver) came out at 20.2 µM; in series [2] (spleen), 16.5 µM. The “toxicity to BALB/c mice” value is “no apparent adverse effects” in the series on BALB/c mice (10 mg/kg/day × 5, ip) and “toxic” with BALB/c mice (30 mg/kg/day × 5, ip).
